Drawing on patent publication US9975882B2, “Heteroaromatic compounds as BTK inhibitors” (Boehringer Ingelheim International GmbH, priority 2015, dated 2018), this text covers IC50 for 36 compounds.

For assay [1], the target named is human full length His-tagged BTK (Homo sapiens (Human), UniProt Q06187). Description: BTK Lanthscreen Eu Kinase Binding assay. The note with it: 2 nM BTK. As for the experimental part:
BTK Lanthscreen® Eu Kinase Binding Assay:
A Lanthscreen® Eu Kinase Binding assay (Life Technologies) is performed to quantitate the ability of test compounds to bind to BTK. The assay is based on the binding and displacement of Alexa Fluor647-labeled Kinase Tracer #236 to the ATP-binding site of human full length His-tagged BTK (Life Technologies cat #PV3587) with TR-FRET detection using a europium-labeled anti-His antibody. The assay is assembled in 384-well low volume NBS black plates (Corning) where 2 nM BTK and test compound in DMSO at varying concentrations are pre-incubated for 30 min at 28° C. in assay buffer consisting of 50 mM HEPES, pH 7.4, 10 mM MgCl2, 1 mM EGTA. 100 μM Na3VO4 and 0.01% Brij 35. Then, 2 nM of Eu-anti His antibody and 30 nM Kinase Tracer are added and incubated for 60 min at 28° C. Following incubation, TR-FRET signal is read on an Envision plate reader (Excitation: 340 nm; Emissions: 615 and 665 nm). The 665:615 nm emission ratio is calculated and converted to POC compared to control and blank wells.

Assay [2] concerns the target EGFR (EGFR phosphorylation in A431 cells) (Homo sapiens (Human), UniProt P00533). Briefly: Inhibition of EGFR autophosphorylation in A431 human epithelial cells stimulated with EGF. The note with it: EGF 60 ng/mL, read-out: A431 p-EGFR IC50. Type of assay: cell-based. The method, then: Inhibition of EGFR Autophosphorylation in A431 Human Epithelial Cells Stimulated with Epithelial Growth Factor
A431 cells (ATCC #CRL-1555 FZ) are thawed and plated in DMEM containing 10% FBS in a 384-well tissue culture treated plate at 15,000 cells/well. After incubating for 24 hours at 37° C., 5% CO2, the cells are treated with test compound (1% DMSO final concentration) and incubated for 16 hours at 37° C., 5% CO2. EGF (Millipore, 01-107) is added at a final concentration of 60 ng/mL and incubated for 10 minutes. The medium is removed, the cells are lysed, and phospho EGFR is measured (Meso Scale Diagnostics, N31CB-1).
(§1) Representative compounds of the present invention are tested and show BTK inhibition (Table I). […] Additionally, compounds of the present invention, as represented by examples in Table II, are selective for BTK inhibition over other related kinases. […] In this table the BTK activity is measured by IL-6 production in primary CD19^+ B cells, and the EGFR activity is measured by EGFR phosphorylation in A431 cells.

The subject of assay [3] is BTK (IL-6 production in primary CD19+ B cells). Description: Inhibition of IL-6 production in B cells co-stimulated with ODN 2006 and anti-hIgD. It is filed as cell-based. The note with it: B-cell, anti-human IgD + ODN 2006. The method, then: Inhibition of IL-6 Production in B Cells Co-Stimulated with ODN 2006 and anti-hIgD
Primary CD19+ B cells (AllCells #PB010F) are thawed and plated in RPMI containing 10% HI FBS in a 384-well tissue cultured plate at 20,000 cells/well. The cells are treated with test compound (0.5% DMSO final concentration) and incubated for 1 hour at 37° C., 5% CO2. Cells are then stimulated with 5 ug/mL Goat F(ab′)2 anti-human IgD (SouthernBiotech #2032) and 2 uM ODN 2006 (InvivoGen #tlrl-2006) and incubated for 18-24 hours at 37° C., 5% CO2. IL-6 in the supernatant is measured using Meso Scale Discovery kit #K211AKB-6.
as §1

For assay [4], the target named is human recombinant BTK (full length, His-tagged) (Homo sapiens (Human), UniProt Q06187). Briefly: BTK Z'-LYTE assay.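 Also: FRET readout of kinase phosphorylating a coumarin and fluorescein labelled synthetic peptide, detected via protease sensitivity of unphosphorylated versus phosphorylated substrate, incubated at 22 °C in 384-well plates.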 Type of assay: biochemical. As to conditions: 25 μM ATP.
Chain of human recombinant BTK (full length, His-tagged) (Q06187 whole entry): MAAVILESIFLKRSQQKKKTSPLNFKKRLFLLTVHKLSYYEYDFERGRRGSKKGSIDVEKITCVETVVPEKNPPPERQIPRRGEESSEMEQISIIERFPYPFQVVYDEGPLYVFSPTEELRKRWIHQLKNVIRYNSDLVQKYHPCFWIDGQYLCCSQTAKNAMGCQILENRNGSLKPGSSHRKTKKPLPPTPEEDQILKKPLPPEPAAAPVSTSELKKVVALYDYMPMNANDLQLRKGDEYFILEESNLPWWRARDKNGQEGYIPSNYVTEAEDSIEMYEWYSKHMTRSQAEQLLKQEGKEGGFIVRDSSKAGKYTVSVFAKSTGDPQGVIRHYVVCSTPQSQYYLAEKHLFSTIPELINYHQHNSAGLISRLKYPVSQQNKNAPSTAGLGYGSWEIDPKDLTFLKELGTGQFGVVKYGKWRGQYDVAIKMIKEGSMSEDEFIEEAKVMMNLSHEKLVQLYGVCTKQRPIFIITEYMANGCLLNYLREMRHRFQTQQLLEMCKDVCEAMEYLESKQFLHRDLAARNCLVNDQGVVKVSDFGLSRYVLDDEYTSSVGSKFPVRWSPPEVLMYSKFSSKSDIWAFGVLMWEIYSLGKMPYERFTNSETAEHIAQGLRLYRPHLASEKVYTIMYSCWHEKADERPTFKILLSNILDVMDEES
Protocol: Z′-LYTE™ Assay (Life Technologies):
(§2) The Z′-Lyte assay employs a FRET-based, coupled-enzyme format and is based on the differential sensitivity of phosphorylated and non-phosphorylated peptides to proteolytic Cleavage. The activity of human recombinant BTK (full length, His-tagged), BMX (full length, His-tagged) or Txk (full length, GST-tagged) is estimated by measuring the phosphorylation of a synthetic FRET peptide substrate labeled with Coumarin and Fluorescein. […] Incubations are carried out at 22° C. in black polypropylene 384-well plates (Corning).
(§3) Representative compounds of the present invention are assessed for inhibition of BTK, BMX, and TXK measuring phosphorylation of a substrate (Z′-LYTE™ assay, Life Technologies) and TEC measuring displacement of a “tracer” (Lanthscreen® Eu Kinase Binding assay, Life Technologies).
For assay [5], the target named is human recombinant Txk (full length, GST-tagged) (Homo sapiens (Human), UniProt P42681). Description: TXK Z'-LYTE assay.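 Also: FRET read-out of kinase phosphorylation of a synthetic peptide labelled with Coumarin and Fluorescein, scored by protease sensitivity of unphosphorylated peptide, incubated at 22 °C.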 As to conditions: read-out: TXK IC50, 100 μM ATP.
Chain of human recombinant Txk (full length, GST-tagged) (P42681 whole entry): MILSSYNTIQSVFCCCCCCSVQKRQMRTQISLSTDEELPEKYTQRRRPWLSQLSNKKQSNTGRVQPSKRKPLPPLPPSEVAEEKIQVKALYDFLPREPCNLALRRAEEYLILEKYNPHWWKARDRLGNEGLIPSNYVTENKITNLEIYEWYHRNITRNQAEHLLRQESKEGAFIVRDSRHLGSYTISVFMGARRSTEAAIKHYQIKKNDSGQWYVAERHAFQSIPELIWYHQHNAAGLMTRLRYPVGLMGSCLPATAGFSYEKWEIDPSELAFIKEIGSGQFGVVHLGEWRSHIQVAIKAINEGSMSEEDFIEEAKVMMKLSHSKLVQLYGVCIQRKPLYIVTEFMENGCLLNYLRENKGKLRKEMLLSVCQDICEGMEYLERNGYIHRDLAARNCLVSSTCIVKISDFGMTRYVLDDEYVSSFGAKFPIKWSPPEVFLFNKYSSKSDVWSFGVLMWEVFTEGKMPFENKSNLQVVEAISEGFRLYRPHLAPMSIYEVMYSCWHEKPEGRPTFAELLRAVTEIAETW
Protocol: Z′-LYTE™ Assay (Life Technologies):
as §2, §3
The target in assay [6] is human recombinant full length TEC (His-tagged) (Homo sapiens (Human), UniProt P42680). Briefly: TEC Lanthscreen Eu Kinase Binding assay. The note with it: 1 nM TEC.
Chain of human recombinant full length TEC (His-tagged) (P42680 whole entry): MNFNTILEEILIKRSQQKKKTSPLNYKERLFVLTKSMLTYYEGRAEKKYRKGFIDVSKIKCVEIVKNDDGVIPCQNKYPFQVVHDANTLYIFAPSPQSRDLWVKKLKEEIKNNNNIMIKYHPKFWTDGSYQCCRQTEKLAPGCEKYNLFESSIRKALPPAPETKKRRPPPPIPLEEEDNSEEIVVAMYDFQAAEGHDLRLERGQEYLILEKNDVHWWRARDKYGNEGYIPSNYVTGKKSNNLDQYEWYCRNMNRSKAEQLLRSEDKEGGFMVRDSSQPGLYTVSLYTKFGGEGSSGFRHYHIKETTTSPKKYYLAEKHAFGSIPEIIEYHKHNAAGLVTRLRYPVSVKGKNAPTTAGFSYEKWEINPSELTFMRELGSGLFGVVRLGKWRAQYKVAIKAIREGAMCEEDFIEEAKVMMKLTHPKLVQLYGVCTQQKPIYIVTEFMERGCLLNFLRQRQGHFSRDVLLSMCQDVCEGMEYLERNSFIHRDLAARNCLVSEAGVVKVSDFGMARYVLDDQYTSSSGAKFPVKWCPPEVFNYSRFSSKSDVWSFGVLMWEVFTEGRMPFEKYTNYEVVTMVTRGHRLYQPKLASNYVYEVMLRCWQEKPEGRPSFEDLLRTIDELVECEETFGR

Chain of EGFR (EGFR phosphorylation in A431 cells) (P00533 25-1210): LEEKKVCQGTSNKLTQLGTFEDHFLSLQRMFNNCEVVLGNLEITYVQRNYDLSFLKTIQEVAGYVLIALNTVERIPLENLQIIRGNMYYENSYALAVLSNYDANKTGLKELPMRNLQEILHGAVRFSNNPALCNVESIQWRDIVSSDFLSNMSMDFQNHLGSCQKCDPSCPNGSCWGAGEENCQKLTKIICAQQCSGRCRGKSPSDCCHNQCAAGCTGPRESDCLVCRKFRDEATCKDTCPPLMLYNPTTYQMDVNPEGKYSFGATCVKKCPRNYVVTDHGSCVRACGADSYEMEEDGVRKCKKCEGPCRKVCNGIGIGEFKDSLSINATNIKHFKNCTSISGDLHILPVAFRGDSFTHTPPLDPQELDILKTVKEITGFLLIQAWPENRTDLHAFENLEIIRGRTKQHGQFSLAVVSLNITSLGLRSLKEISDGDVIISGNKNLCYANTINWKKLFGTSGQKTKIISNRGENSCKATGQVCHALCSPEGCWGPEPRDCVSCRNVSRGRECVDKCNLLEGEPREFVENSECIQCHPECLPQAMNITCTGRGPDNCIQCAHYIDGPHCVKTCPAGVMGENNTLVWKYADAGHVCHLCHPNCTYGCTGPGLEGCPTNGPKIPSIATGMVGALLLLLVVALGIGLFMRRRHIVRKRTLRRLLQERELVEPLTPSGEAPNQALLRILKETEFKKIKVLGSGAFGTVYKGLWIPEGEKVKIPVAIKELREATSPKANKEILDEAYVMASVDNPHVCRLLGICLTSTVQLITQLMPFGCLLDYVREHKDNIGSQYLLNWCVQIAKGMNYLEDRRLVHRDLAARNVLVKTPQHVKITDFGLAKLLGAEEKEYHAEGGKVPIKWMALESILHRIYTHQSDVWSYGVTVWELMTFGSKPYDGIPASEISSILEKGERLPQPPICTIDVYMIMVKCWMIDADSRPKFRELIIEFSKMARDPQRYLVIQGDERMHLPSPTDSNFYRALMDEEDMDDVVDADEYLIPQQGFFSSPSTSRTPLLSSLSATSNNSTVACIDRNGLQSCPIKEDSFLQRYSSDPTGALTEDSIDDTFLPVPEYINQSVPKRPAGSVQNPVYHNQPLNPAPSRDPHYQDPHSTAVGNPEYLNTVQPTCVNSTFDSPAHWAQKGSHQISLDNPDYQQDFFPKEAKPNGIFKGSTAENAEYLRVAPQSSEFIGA
Chain of human full length His-tagged BTK (Q06187 whole entry): as the sequence (Q06187 whole entry) above

`C=CC(=O)N1CC[C@]2(C1)C[C@H](n1nc(-c3cnn(Cc4ccccc4)c3)c(C(N)=O)c1N)C2` [Example 1]: in assay [1], the half-inhibitory concentration (IC50) (as a rule, the midpoint of a concentration-inhibition curve) amounted to 36 nM.
As for `CC#CC(=O)N1CC[C@]2(C1)C[C@H](n1nc(-c3cnn(Cc4cccc(Cl)c4)c3)c(C(N)=O)c1N)C2` [Example 2], the values for the IC50 in assay [2] and in assay [3] were > 10000 nM and 0.3 nM, respectively.
In the case of `CC#CC(=O)N1CC[C@]2(C1)C[C@H](n1nc(-c3cnn(Cc4cccc(C(F)(F)F)c4Cl)c3)c(C(N)=O)c1N)C2` [Example 3], the half-inhibitory concentration (IC50) in assay [2] was > 10000 nM; in assay [3] it was 1.2 nM.
`CC#CC(=O)N1CC[C@]2(C1)C[C@H](n1nc(-c3cnn(Cc4cc(C(F)(F)F)ccc4C)c3)c(C(N)=O)c1N)C2` [Example 4] showed an IC50 in assay [1] of 1.8 nM.
For the compound `CC#CC(=O)N1CC[C@]2(C1)C[C@H](n1nc(-c3cnn(Cc4ccc(C)c(C(F)(F)F)c4)c3)c(C(N)=O)c1N)C2` [Example 5], the IC50 in assay [1] stood at 0.4 nM.
In the case of `CC#CC(=O)N1CC[C@]2(C1)C[C@H](n1nc(-c3cnn(Cc4cc(C(F)(F)F)ccc4OC)c3)c(C(N)=O)c1N)C2` [Example 7], the IC50 in assay [2] was > 10000 nM; in assay [3], 72 nM.
The like results for `CC#CC(=O)N1CC[C@]2(C1)C[C@H](n1nc(-c3cnn(Cc4cc(C(F)(F)F)ccc4Cl)c3)c(C(N)=O)c1N)C2` [Example 8] were, in that order, > 10000 nM and 2.5 nM.
In assay [1], `CC#CC(=O)N1CC[C@]2(C1)C[C@H](n1nc(-c3cnn(Cc4ccccc4OC(F)(F)F)c3)c(C(N)=O)c1N)C2` [Example 9] yielded a half-maximal inhibitory concentration (IC50) of 0.6 nM.
As for `CC#CC(=O)N1CC[C@]2(C1)C[C@H](n1nc(-c3cnn(Cc4ccccc4C#N)c3)c(C(N)=O)c1N)C2` [Example 11], the IC50 in assay [4] was determined as 1.8 nM; in assay [5], 150 nM; in assay [1], 0.7 nM; in assay [6], 73 nM.
Consider `CC#CC(=O)N1CC[C@]2(C1)C[C@H](n1nc(-c3cnn(Cc4ccnc(C(F)(F)F)c4)c3)c(C(N)=O)c1N)C2` [Example 13], for which, in assay [1], the IC50 stood at 9.1 nM.
Consider `CC#CC(=O)N1CC[C@]2(C1)C[C@H](n1nc(-c3cnn(Cc4cccc(C(F)(F)F)n4)c3)c(C(N)=O)c1N)C2` [Example 14], for which the IC50 in assay [4] was 1.7 nM; in assay [2] it was > 10000 nM; in assay [3] it was 1.1 nM; in assay [1] it was 0.5 nM; in assay [6], 92 nM.
As to `CC#CC(=O)N1CC[C@]2(C1)C[C@H](n1nc(-c3cnn(C(C)c4cccc(C(F)(F)F)c4)c3)c(C(N)=O)c1N)C2` (some centres unmarked) [Example 15], the IC50 in assay [1] came out at 1.1 nM.
On to `CC#CC(=O)N1CC[C@]2(C1)C[C@H](n1nc(-c3cnn([C@H](C)c4cccc(C(F)(F)F)c4)c3)c(C(N)=O)c1N)C2` [Example 18], for which the IC50 in assay [2] was > 10000 nM; in assay [3] it was 8 nM.
`C=CC(=O)N1CC[C@]2(C1)C[C@H](n1nc(-c3cnn(Cc4cccc(C(F)(F)F)c4)c3)c(C(N)=O)c1NC)C2` [Example 20] displayed an IC50 in assay [1] of 22 nM.
Turning to `CC#CC(=O)N1CC[C@]2(C1)C[C@H](n1nc(-c3cnn(Cc4cccc(C5CC5)c4)c3)c(C(N)=O)c1NC)C2` [Example 24], the IC50 in assay [1] came to 0.8 nM.
On to `CC#CC(=O)N1CC[C@]2(C1)C[C@H](n1nc(-c3cnn(Cc4cccc(Cl)c4)c3)c(C(N)=O)c1NC)C2` [Example 27], for which the IC50 in assay [4] is 6.6 nM; in assay [2] it was > 10000 nM; in assay [3], 3.4 nM; in assay [1], 1.7 nM; in assay [6], 66 nM.
With `CC#CC(=O)N1CC[C@]2(C1)C[C@H](n1nc(-c3cnn(Cc4cccc(F)c4)c3)c(C(N)=O)c1N)C2` [Example 28], the IC50 in assay [4] was found to be 1.2 nM; in assay [5], 95 nM; in assay [1], 0.3 nM; in assay [6] it was 39 nM.
For `CC#CC(=O)N1CC[C@]2(C1)C[C@H](n1nc(-c3cnn(Cc4ccc(F)cc4)c3)c(C(N)=O)c1N)C2` [Example 29], the values for the IC50 in assay [4], in assay [5] and in assay [1] were 3.6 nM, 92 nM and 0.8 nM, respectively.
As for `CC#CC(=O)N1CC[C@]2(C1)C[C@H](n1nc(-c3cnn(Cc4cc(F)cc(C(F)(F)F)c4)c3)c(C(N)=O)c1N)C2` [Example 31], in assay [1], the IC50 stood at 0.8 nM.
For the compound `CC#CC(=O)N1CC[C@]2(C1)C[C@H](n1nc(-c3cnn(Cc4cc(C(F)(F)F)ccc4F)c3)c(C(N)=O)c1N)C2` [Example 32], the IC50 in assay [4] is 1.9 nM; in assay [2] it was > 10000 nM; in assay [3], 1.3 nM; in assay [1] it was 0.5 nM.
In assay [1], `CC#CC(=O)N1CC[C@]2(C1)C[C@H](n1nc(-c3cn(Cc4cccc(Cl)c4)nc3C)c(C(N)=O)c1N)C2` [Example 34] registered an IC50 of 0.7 nM.
With `CC#CC(=O)N1CC[C@]2(C1)C[C@H](n1nc(-c3cn(Cc4cccc(C(F)F)c4)nc3C)c(C(N)=O)c1N)C2` [Example 35], the IC50 in assay [1] stood at 0.9 nM.
In the case of `CC#CC(=O)N1CC[C@]2(C1)C[C@H](n1nc(-c3cn(Cc4cccc(C5CC5)c4)nc3C)c(C(N)=O)c1N)C2` [Example 37], in assay [1], the IC50 stood at 0.8 nM.
For the compound `CC#CC(=O)N1CC[C@]2(C1)C[C@H](n1nc(-c3cnn(Cc4cc(C)cc(C(F)(F)F)c4)c3)c(C(N)=O)c1N)C2` [Example 38], in assay [1], the IC50 came to 3 nM.
The same measure, in the same setting: the value for `CC#CC(=O)N1CC[C@]2(C1)C[C@H](n1nc(-c3cnn(Cc4cc(Cl)cc(C(F)(F)F)c4)c3)c(C(N)=O)c1N)C2` [Example 39] was 0.9 nM; that for `CC#CC(=O)N1CC2(CC(n3nc(-c4cnn(Cc5cc(C)cc(C)c5)c4)c(C(N)=O)c3N)C2)C1` [Example 40] was 4.2 nM.
On the same count and under the same terms, in the case of `NC(=O)c1c(-c2cnn(Cc3ccccc3)c2)nn([C@H]2C[C@@]3(CCN(C(=O)C#CC4CC4)C3)C2)c1N` [Example 41] it was 0.3 nM; in that of `C=CC(=O)N1CC[C@]2(C1)C[C@H](n1nc(-c3cnn(Cc4cccc(C(F)(F)F)c4)c3)c(C(N)=O)c1N)C2` [Example 42], 78 nM; in that of `C=CC(=O)N1CC[C@]2(C1)C[C@H](n1nc(-c3cnn(Cc4cccc(C5CC5)c4)c3)c(C(N)=O)c1N)C2` [Example 43], 3 nM.
Still for that read-out and setting: in the case of `CC#CC(=O)N1CC2(CC(n3nc(-c4cnn(Cc5ccccc5)c4)c(C(N)=O)c3N)C2)C1` [Example 45] it was 6 nM; in that of `CC#CC(=O)N1CC2(CC(n3nc(-c4cnn(Cc5cc(C)cc(C(F)(F)F)c5)c4)c(C(N)=O)c3N)C2)C1` [Example 46], 7.9 nM.
In assay [1], `C=CC(=O)N1CC2(CC(n3nc(-c4cnn(Cc5ccccc5)c4)c(C(N)=O)c3N)C2)C1` [Example 48] displayed an IC50 of 16 nM.
Same read-out and setting: in the case of `CC#CC(=O)N1CC2(CC(n3nc(-c4cnn(Cc5cc(C(F)(F)F)cc(C(F)(F)F)c5)c4)c(C(N)=O)c3N)C2)C1` [Example 49] it was 45 nM; in that of `CC#CC(=O)N1CC[C@]2(C1)C[C@H](n1nc(-c3cnn(Cc4cc(F)ccc4C(F)(F)F)c3)c(C(N)=O)c1N)C2` [Example 57], 0.9 nM.
For the compound `CC#CC(=O)N1CC[C@]2(C1)C[C@H](n1nc(-c3cnn(Cc4ccc(Cl)c(C(F)(F)F)c4)c3)c(C(N)=O)c1N)C2` [Example 58], the results for the IC50 in assay [2] and in assay [3] were > 10000 nM and 3.4 nM, respectively.
Consider `CC#CC(=O)N1CC[C@]2(C1)C[C@H](n1nc(-c3cnn(Cc4cccc(F)c4F)c3)c(C(N)=O)c1N)C2` [Example 59], for which the IC50 in assay [4] was 0.8 nM; in assay [5], 68 nM; in assay [2], > 10000 nM; in assay [3] it was 0.4 nM; in assay [1] it was 0.3 nM.
